According to patent publication US8012949B2, “Bisphosphonate compounds and methods with enhanced potency for multiple targets including FPPS, GGPPS, and DPPS” (The Board of Trustees of the University of Illinois, priority 2004, dated 2011):

Molecular target: T1, human recombinant geranylgeranyl diphosphate synthase (hGGPPS) (Homo sapiens, UniProt O95749)
T1 construct: made in house
T1 sequence (O95749 1-300): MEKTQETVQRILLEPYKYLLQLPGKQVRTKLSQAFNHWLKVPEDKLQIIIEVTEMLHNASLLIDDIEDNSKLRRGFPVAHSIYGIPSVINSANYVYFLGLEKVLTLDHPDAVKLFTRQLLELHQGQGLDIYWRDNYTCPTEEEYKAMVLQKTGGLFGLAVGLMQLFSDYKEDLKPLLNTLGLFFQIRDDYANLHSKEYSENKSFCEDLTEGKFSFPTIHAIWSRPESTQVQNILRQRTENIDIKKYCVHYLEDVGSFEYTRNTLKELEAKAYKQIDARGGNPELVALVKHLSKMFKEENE
Assay: Human recombinant GGPPS inhibition (radiometric assay)
Type: biochemical
Experimental: To test our polypharmaceutical hypothesis, we expressed three enzymes: human FPPS, GGPPS and DPPS, and tested each for their inhibition by a series of bisphosphonates.
Human recombinant GGPPS inhibition. The purification of human recombinant geranylgeranyl diphosphate synthase (hGGPPS) followed the protocol reported previously^2. GGPPS inhibition by bisphosphonates was determined using the radiometric assay reported previously^2 with slight modification. […] IPP and incubated at 37° C. for 20 min. The reaction was terminated by the addition of 75 μL of HCl/MeOH. Following a second 20 min incubation at 37° C. to effectively hydrolyze the allylic pyrophosphates, the reaction mixtures were neutralized by the addition of 75 μL of 6 N NaOH and extracted with 500 μL of hexane. 200 μL of the organic phase was transferred to a scintillation vial for counting. The IC50 values were obtained by fitting the data to the dose-response curve in Origin 6.1 (OriginLab Corp., Northampton, Mass., www.OriginLab.com).

CCCCCCCCCCOc1cccc(CC(O)(P(=O)(O)O)P(=O)(O)O)c1 [BPH-754]
effect on GGPPS: good GGPPS inhibitor | Ki (Table 1, experimental, read-out: GGPPS pKi (converted)): 15.8 nM
